These results are taken from ChEMBL document CHEMBL3508693 (2016).

A short description of data set [1]: Oral clearance of SPP100 following single oral dose of SPP100 150 mg capsule studied in healthy human. It counts as ADME, organism-based. Particulars: plasma.
A short description of data set [2]: Terminal elimination half-life of SPP100 following single oral dose of SPP100 600 mg capsule studied in healthy human. It counts as ADME, organism-based. Conditions: plasma.
A further data set deals with T1, CYP2A6 (Homo sapiens, UniProt P11509).
T1 sequence (P11509 whole entry): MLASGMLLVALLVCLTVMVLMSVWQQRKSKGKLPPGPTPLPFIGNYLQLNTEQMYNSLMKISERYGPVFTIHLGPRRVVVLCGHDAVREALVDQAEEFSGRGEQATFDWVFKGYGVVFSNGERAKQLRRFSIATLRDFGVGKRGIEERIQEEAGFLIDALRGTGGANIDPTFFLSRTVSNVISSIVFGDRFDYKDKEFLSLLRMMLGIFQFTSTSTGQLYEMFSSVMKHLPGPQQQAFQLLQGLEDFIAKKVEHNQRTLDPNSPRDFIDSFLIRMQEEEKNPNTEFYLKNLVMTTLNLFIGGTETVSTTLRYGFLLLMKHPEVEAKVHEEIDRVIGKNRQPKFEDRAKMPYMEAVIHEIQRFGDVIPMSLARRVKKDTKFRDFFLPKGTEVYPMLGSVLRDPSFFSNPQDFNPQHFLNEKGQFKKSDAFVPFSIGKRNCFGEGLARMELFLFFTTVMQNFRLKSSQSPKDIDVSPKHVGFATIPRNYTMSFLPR
The data set is described as follows: Inhibitory activity of 200 uM SPP100 on 37 Pmoles of cDNA-derived CYP2A6 enzyme in microsome prepared from human lymphoblastoid cell line. It counts as ADME, microsomes. Further details: conc 200 uM, interact cpd conc 3 uM. Particulars: probe coumarine.

Data set [3] in a line: Excretion (0-72h) of aliskiren in faeces following intravenous administration of [14C] aliskiren hemifumarate at 1 mg.Kg-1 level in marmoset. It counts as ADME, organism-based, Callithrix jacchus, Feces. Particulars: in vivo.
Data set [4] is described as follows: Excretion of radioactivity (48-72h) in urine following single oral dose of 500 mg.Kg-1 [14C] aliskiren hemifumarate in mouse. Format: ADME, organism-based, TgRasH2. Particulars: in vivo.
Data set [5] is described as follows: Excretion of radioactivity (24-48h) in urine following single intravenous dose of 10 mg.Kg-1 [14C] aliskiren hemifumarate in mouse. Conditions: in vivo. Format: ADME, organism-based, TgRasH2.
Data set [6] in a line: Excretion (48h) of radioactivity in urine following oral administration of [14C] aliskiren hemifumarate at 100 mg.Kg-1 level in rat. It counts as ADME, organism-based, Lister-Hooded. Conditions: in vivo.
The nature of data set [7]: Concentration of radioactivity in the brown fat following repeated oral administration of [14C] aliskiren hemifumarate at 100 mg.Kg-1 level studied at 2h after 7th dose in rat. It counts as ADME, organism-based, Albino HAN:WIST, Brown adipose tissue. Conditions: in vivo.
Data set [8] is described as follows: Excretion of radioactivity (0-24h) in faeces following single oral dose of 100 mg.Kg-1 [14C] aliskiren hemifumarate in rat. It counts as ADME, organism-based, Albino HAN:WIST, Feces. Particulars: in vivo.
Data set [9] is described as follows: Excretion of radioactivity (48-72h) in faeces following single oral dose of 100 mg.Kg-1 [14C] aliskiren hemifumarate in rat. Format: ADME, organism-based, Albino HAN:WIST, Feces. Conditions: in vivo.
Data set [10] can be described thus: Concentration of radioactivity in carcass following intravenous administration of [14C] aliskiren hemifumarate at 10 mg.Kg-1 level measured on day 7 in rat. Format: ADME, organism-based, Lister-Hooded. Particulars: in vivo.
Data set [11] in a line: Mean excretion of radioactivity (0-24h) in urine and faeces following single oral dose of 500 mg.Kg-1 [14C] aliskiren hemifumarate in mouse. Format: ADME, organism-based, TgRasH2, Urine/Feces. Particulars: in vivo.
Data set [12] can be described thus: Cmax (0-168h) of total radioactivity following single intravenous administration of [14C] aliskiren hemifumarate at 1 mg.Kg-1 level in marmoset. It counts as ADME, organism-based, Callithrix jacchus, Plasma. Particulars: in vivo.
The target in another data set is T2, Cytochrome P450 4A11 (Homo sapiens, UniProt Q02928).
T2 sequence (Q02928 whole entry): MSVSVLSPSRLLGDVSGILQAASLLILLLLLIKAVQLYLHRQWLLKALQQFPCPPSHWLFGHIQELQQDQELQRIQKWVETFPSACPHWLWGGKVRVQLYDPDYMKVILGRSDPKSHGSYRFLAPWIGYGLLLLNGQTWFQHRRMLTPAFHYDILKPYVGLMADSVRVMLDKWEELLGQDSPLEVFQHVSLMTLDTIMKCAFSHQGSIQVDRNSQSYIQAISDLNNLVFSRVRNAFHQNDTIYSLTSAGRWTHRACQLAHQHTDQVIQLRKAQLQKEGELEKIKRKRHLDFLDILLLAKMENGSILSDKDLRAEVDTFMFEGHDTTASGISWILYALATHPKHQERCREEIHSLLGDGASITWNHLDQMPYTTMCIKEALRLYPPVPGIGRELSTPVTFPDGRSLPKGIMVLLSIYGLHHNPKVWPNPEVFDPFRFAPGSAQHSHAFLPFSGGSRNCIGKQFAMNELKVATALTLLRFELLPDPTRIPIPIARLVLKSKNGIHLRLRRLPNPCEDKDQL
The data set is described as follows: Metabolic clearance (ul.min.nmol-1 CYP) of aliskiren hemifumarate for CYP4A11 was determined in human liver microsome incubated with [14C]SPP100 hemifumarate. It counts as ADME. Conditions: microsomes. (Liver microsomes are a subcellular fraction often used to study metabolism.)

The nature of data set [13]: Mean excretion of radioactivity (24-48h) in urine and faeces following single intravenous dose of 10 mg.Kg-1 [14C] aliskiren hemifumarate in mouse. Format: ADME, organism-based, TgRasH2, Urine/Feces. Particulars: in vivo.
The nature of data set [14]: Cmax of aliskiren hemifumarate following 4 week oral dietary dosing of aliskiren hemifumarate at 2000 mg.Kg-1 level in female mouse. It counts as ADME, organism-based. Particulars: CB6F1-TGrasH2, mouse, in vivo.
A short description of data set [15]: AUC/dose (0-168h) of unlabeled aliskiren hemifumarate following single oral administration of aliskiren hemifumarate at 3 mg.Kg-1 level in marmoset. Format: ADME, organism-based, Callithrix jacchus, Plasma. Conditions: in vivo.
The nature of data set [16]: Cmaxspec of aliskiren hemifumarate following 2 week oral dosing of aliskiren hemifumarate at 50 mg.Kg-1 level studied on day 1 in female Callithrix jacchus. Format: ADME, organism-based, Plasma. Particulars: marmoset, in vivo, 336 h.
A short description of data set [17]: Tmax (0-168h) of unlabeled aliskiren hemifumarate following single oral administration of aliskiren hemifumarate at 3 mg.Kg-1 level in marmoset. It counts as ADME, organism-based, Callithrix jacchus. Conditions: plasma.
Data set [18] in a line: AUC (0-24h) of aliskiren hemifumarate following 4 week oral dietary dosing of aliskiren hemifumarate at 1000 mg.Kg-1 level in male mouse. Format: ADME, organism-based. Particulars: CB6F1-TGrasH2, mouse, plasma.
A short description of data set [19]: Cmaxspec of aliskiren hemifumarate following 2 week oral dosing of aliskiren hemifumarate at 10 mg.Kg-1 level studied on day 1 in female Callithrix jacchus. Format: ADME, organism-based, Plasma. Conditions: marmoset, in vivo, 336 h.
Data set [20] is described as follows: Cmax of aliskiren hemifumarate following 2 week oral dosing of aliskiren hemifumarate at 10 mg.Kg-1 level studied on day 1 in female Callithrix jacchus. It counts as ADME, organism-based. Conditions: marmoset, plasma.
Data set [21] can be described thus: Effect of 2 week oral dosing of aliskiren hemifumarate at 100 mg.Kg-1 level on hematological parameter values in male Callithrix jacchus. It counts as toxicity, organism-based, Plasma. Conditions: marmoset, in vivo, 336 h.
The nature of data set [22]: Plasma clearance (0-168h) of unlabeled aliskiren hemifumarate following single intravenous administration of aliskiren hemifumarate at 1 mg.Kg-1 level in marmoset. It counts as ADME, organism-based, Callithrix jacchus. Particulars: in vivo.
A short description of data set [23]: Tmax of aliskiren hemifumarate following 2 week oral dosing of aliskiren hemifumarate at 100 mg.Kg-1 level studied on day 14 in female Callithrix jacchus. Conditions: marmoset, plasma. Format: ADME, organism-based.
The nature of data set [24]: t1/2 of aliskiren hemifumarate following 2 week oral dosing of aliskiren hemifumarate at 100 mg.Kg-1 level studied on day 1 in male Callithrix jacchus. It counts as ADME, organism-based. Conditions: marmoset, plasma.
Data set [25] is described as follows: Cmax of aliskiren hemifumarate following 8 day once-daily dosing of SPP100B oral solution at 80 mg level studied on day 8 in men. It counts as ADME, organism-based. Particulars: male, human, plasma.
Data set [26] is described as follows: AUC(0-24h) of aliskiren hemifumarate following 2 week oral dosing of aliskiren hemifumarate at 10 mg.Kg-1 level studied on day 14 in female Callithrix jacchus. It counts as ADME, organism-based. Conditions: marmoset, plasma.

The CL/F is the apparent clearance, not corrected for the fraction that reaches the circulation. What is called half-life is how long it takes for the measured level to halve. The low end stands for fast loss, the high end for slow loss. In general, inhibition refers to how much of the control response was suppressed. Higher therefore signals a response far below the control. In [1], `COCCCOc1cc(C[C@@H](C[C@H](N)[C@@H](O)C[C@H](C(=O)NCC(C)(C)C(N)=O)C(C)C)C(C)C)ccc1OC` had a CL/F of 5350 mL/min. Besides, the half-life in data set [2] is 34 h. The inhibition at 200 µM at CYP2A6 stood at 2.6%. The molecule further returned a Compound recovery in data set [3] of 36%.
What is called Cmax is the peak of the concentration-time curve. As for `COCCCOc1cc(C[C@@H](C[C@H](N)[C@@H](O)C[C@H](C(=O)NCC([14CH3])([14CH3])C(N)=O)C(C)C)C(C)C)ccc1OC.O=C(O)/C=C/C(=O)O`, the Radiolabel recovery is listed as 0.34% in [4]; 9.49% in data set [5]; 0.576% in [6]; “OUTCOME = Detected” in data set [7]; 2.96% in [8]; 0.36% in data set [9]. Further, the Radiolabel recovery entry was “OUTCOME = Observed, VALUE = residues of radioactivity remained in the carcass at 7 days after dosing” in data set [10]; 69.96% in data set [11]; 7.51% in [13]. Further, in data set [12], the peak concentration (Cmax) is 11.4 µM. Further, at Cytochrome P450 4A11, the CL came out at 4.9 µL·min/nmol.
As a reminder, the Tmax is the time at which the peak concentration occurs. By AUC(0-t) is commonly meant exposure summed from dosing to a finite time, without extrapolation to infinity. A high value points to more exposure. The AUC is concentration integrated over time. High values mean high exposure, low ones low exposure. Consider `COCCCOc1cc(C[C@@H](C[C@H](N)[C@@H](O)C[C@H](C(=O)NCC(C)(C)C(N)=O)C(C)C)C(C)C)ccc1OC.COCCCOc1cc(C[C@@H](C[C@H](N)[C@@H](O)C[C@H](C(=O)NCC(C)(C)C(N)=O)C(C)C)C(C)C)ccc1OC.O=C(O)/C=C/C(=O)O` [ALISKIREN FUMARATE], for which the figures for the Cmax in data set [14], in data set [20] and in [25] were 1230 ng/mL, 3960 ng/mL and 12.7 ng/mL, respectively. Further, the AUC normalised in data set [15] is reported as 1.52 (umol.h/L)/(mg/kg). Further, the Cmax normalised in [16] is on record as 0.177 (ug/ml)/(mg/kg); in [19], 0.396 (ug/ml)/(mg/kg). Moreover, the time of peak concentration (Tmax) in [17] and in data set [23] was 2 h in each case. This molecule also returned an AUC(0-t) at 24 h in [18] of 4820 ng·h/mL. The Change in hematology result in data set [21] is recorded as “OUTCOME = Hematological parameter values did not differ from control values. No animals died during the study”. Moreover, the Plasma clearance in data set [22] amounted to 0.036 L·h/kg. Besides, the half-life in data set [24] is 12.8 h. Moreover, the AUC at 24 h in data set [26] turned out to be 29000 ng·h/mL.
